Source: US20060127411A1 (priority 2002, published 2006)

Legend:
[1] = system: peripheral blood lymphocytes (PBMC); type: cell-based, human
[2] = system: peripheral blood lymphocytes (PBMC); type: cell-based, human; remark: listed apart in the source
[3] = system: IgE antibodies from the serum of patients with atopic eczema; type: binding, human
[4] = system: IgE antibodies from the serum of patients with atopic eczema; type: binding, human; remark: listed apart in the source

| Substance | IgE binding in the dot blot [3] | IgE binding in the immunoblot [4] | further results |
| --- | --- | --- | --- |
| QEEDFLTLH [Peptide P2] | weak but clearly detectable IgE binding |  | Intracellular IFNγ production [1]: P1 suppresses the production of IFNγ, a cytokine which mediates a number of immunological functions, more strongly than P2; Intracellular IL-4 production [1]: is stimulated as a function of the dosage; Ratio between IFNγ and IL-4 (IFNγ+ Th1 cells to IL-4+ Th2 cells) [1]: modified by the peptides as a function of the dosage in favour of the IL-4 producing Th2 lymphocytes; Effect on proliferation of lymphocytes [2]: did not bring to light any significant effects |
| QELDYLTRH [Peptide P1] | weak but clearly detectable IgE binding |  |  |
| S. aureus enterotoxin B [SEB, reference compound] |  | possible to detect specific IgE antibodies against SEB |  |
| V Q T N K K K V T A Q E L D Y L T R H (VQTNKKKVTAQELDYLTRH) [Peptide (c)] |  | the only one to exhibit an IgE binding |  |
